Experimental data reported in patent US20090018134A1, “Compounds - 945” (AstraZeneca AB, priority 2007, published 2009).
pIC50: −log10 of the molar value.

biological target: T1, mTOR (Homo sapiens, UniProt P42345); test: In Vitro mTOR Kinase Assay (Echo), Test (a)(ii); assay type: biochemical; settings: table of enzyme assay Test (a)(ii); read-out: Test (a)(ii) IC50
T1 construct: FLAG; made in house
Method in brief: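 Inhibition expressed as IC50 from an AlphaScreen read-out: phospho-T389 p70 S6K antibody plus streptavidin donor/protein A acceptor beads, left overnight in the dark. The kinase reaction ran 2 h at room temperature, then was stopped with EDTA. Enzyme: FLAG-purified mTOR 1362-2549 fragment from stable HEK293 cells.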

T1 sequence (P42345 1362-2549): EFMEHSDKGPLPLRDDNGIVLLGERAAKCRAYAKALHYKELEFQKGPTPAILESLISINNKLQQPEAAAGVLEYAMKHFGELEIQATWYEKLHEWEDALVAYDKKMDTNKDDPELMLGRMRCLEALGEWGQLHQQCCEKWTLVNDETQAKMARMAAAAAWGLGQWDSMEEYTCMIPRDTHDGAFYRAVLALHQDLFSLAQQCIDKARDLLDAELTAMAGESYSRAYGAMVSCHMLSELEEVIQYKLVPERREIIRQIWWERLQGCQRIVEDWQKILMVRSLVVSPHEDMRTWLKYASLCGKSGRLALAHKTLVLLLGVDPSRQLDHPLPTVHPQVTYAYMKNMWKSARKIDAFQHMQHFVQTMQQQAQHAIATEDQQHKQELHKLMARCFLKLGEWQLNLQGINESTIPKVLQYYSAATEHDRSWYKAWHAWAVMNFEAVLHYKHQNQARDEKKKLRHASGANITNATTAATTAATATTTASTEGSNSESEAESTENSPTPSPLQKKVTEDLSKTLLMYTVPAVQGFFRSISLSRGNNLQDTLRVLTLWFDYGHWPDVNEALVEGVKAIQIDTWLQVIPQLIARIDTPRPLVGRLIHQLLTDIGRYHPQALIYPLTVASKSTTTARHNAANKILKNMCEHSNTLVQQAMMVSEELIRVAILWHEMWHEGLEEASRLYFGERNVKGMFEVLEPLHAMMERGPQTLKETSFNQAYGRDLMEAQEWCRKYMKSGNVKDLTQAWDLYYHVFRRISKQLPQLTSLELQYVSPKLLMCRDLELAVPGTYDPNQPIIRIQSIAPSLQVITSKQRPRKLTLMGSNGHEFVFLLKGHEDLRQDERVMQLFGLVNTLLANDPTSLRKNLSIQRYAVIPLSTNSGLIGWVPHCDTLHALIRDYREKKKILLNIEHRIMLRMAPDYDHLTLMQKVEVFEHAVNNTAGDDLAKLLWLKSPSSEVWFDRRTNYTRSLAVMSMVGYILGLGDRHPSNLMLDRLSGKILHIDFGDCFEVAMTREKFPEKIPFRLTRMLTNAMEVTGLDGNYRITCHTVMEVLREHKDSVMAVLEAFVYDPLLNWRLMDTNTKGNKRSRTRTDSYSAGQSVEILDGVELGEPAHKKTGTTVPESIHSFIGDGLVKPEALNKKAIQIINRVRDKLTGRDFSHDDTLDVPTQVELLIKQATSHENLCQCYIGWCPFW

Row | Structure (SMILES) | pIC50
1 | C[C@@H](CO)NC(=O)Nc1ccc(-c2nc(N3CCOC[C@@H]3C)cc(C3(S(=O)(=O)C4CC4)CCC3)n2)cc1 [Example 64x, 1-[4-[4-(1-cyclopropylsulfonylcyclobutyl)-6-[(3S)-3-methylmorpholin-4-yl]pyrimidin-2-yl]phenyl]-3-[(2S)-1-hydroxypropan-2-yl]urea] | 8.12
2 | C[C@H](CO)NC(=O)Nc1ccc(-c2nc(N3CCOC[C@@H]3C)cc(C3(S(=O)(=O)C4CC4)CCC3)n2)cc1 [Example 64y, 1-[4-[4-(1-cyclopropylsulfonylcyclobutyl)-6-[(3S)-3-methylmorpholin-4-yl]pyrimidin-2-yl]phenyl]-3-[(2R)-1-hydroxypropan-2-yl]urea] | 7.90
3 | C[C@H]1COCCN1c1cc(C2(S(=O)(=O)C3CC3)CCC2)nc(-c2ccc(NC(=O)NCCCO)cc2)n1 [Example 64z, 1-[4-[4-(1-cyclopropylsulfonylcyclobutyl)-6-[(3S)-3-methylmorpholin-4-yl]pyrimidin-2-yl]phenyl]-3-(3-hydroxypropyl)urea] | 8.06
4 | C[C@H]1COCCN1c1cc(C2(S(=O)(=O)c3ccc(F)cc3)CCC2)nc(-c2ccc(NC(=O)NCc3ncc[nH]3)cc2)n1 [Example 65, 1-[4-[4-[1-(4-Fluorophenyl)sulfonylcyclobutyl]-6-[(3S)-3-methylmorpholin-4-yl]pyrimidin-2-yl]phenyl]-3-(1H-imidazol-2-ylmethyl)urea] | 7.52
5 | C[C@H]1COCCN1c1cc(C2(S(=O)(=O)c3ccc(F)cc3)CCC2)nc(-c2ccc(NC(=O)NCCCO)cc2)n1 [Example 65a, 1-[4-[4-[1-(4-fluorophenyl)sulfonylcyclobutyl]-6-[(3S)-3-methylmorpholin-4-yl]pyrimidin-2-yl]phenyl]-3-(3-hydroxypropyl)urea] | 8.16
6 | C[C@H]1COCCN1c1cc(C2(S(=O)(=O)c3ccc(F)cc3)CCC2)nc(-c2ccc(NC(=O)NCCO)cc2)n1 [Example 65b, 1-[4-[4-[1-(4-fluorophenyl)sulfonylcyclobutyl]-6-[(3S)-3-methylmorpholin-4-yl]pyrimidin-2-yl]phenyl]-3-(2-hydroxyethyl)urea] | 8.47
7 | C[C@H]1COCCN1c1cc(C2(S(=O)(=O)c3ccc(F)cc3)CCC2)nc(-c2ccc(NC(=O)NC(C)(C)CO)cc2)n1 [Example 65c, 1-[4-[4-[1-(4-fluorophenyl)sulfonylcyclobutyl]-6-[(3S)-3-methylmorpholin-4-yl]pyrimidin-2-yl]phenyl]-3-(1-hydroxy-2-methylpropan-2-yl)urea] | 7.82
8 | C[C@@H](CO)NC(=O)Nc1ccc(-c2nc(N3CCOC[C@@H]3C)cc(C3(S(=O)(=O)c4ccc(F)cc4)CCC3)n2)cc1 [Example 65d, 1-[4-[4-[1-(4-fluorophenyl)sulfonylcyclobutyl]-6-[(3S)-3-methylmorpholin-4-yl]pyrimidin-2-yl]phenyl]-3-[(2S)-1-hydroxypropan-2-yl]urea] | 8.35
9 | C[C@H](CO)NC(=O)Nc1ccc(-c2nc(N3CCOC[C@@H]3C)cc(C3(S(=O)(=O)c4ccc(F)cc4)CCC3)n2)cc1 [Example 65e, 1-[4-[4-[1-(4-fluorophenyl)sulfonylcyclobutyl]-6-[(3S)-3-methylmorpholin-4-yl]pyrimidin-2-yl]phenyl]-3-[(2R)-1-hydroxypropan-2-yl]urea] | 7.94
10 | C[C@H]1COCCN1c1cc(C2(S(=O)(=O)c3nccs3)CC2)nc(-c2ccc(NC(=O)NCCO)cc2)n1 [Example 66, 3-(2-Hydroxyethyl)-1-[4-[4-[(3S)-3-methylmorpholin-4-yl]-6-[1-(1,3-thiazol-2-ylsulfonyl)cyclopropyl]pyrimidin-2-yl]phenyl]urea] | 8.52
11 | C[C@H]1COCCN1c1cc(C2(S(=O)(=O)c3nccs3)CC2)nc(-c2ccc(NC(=O)NCCCO)cc2)n1 [Example 66a, 3-(3-hydroxypropyl)-1-[4-[4-[(3S)-3-methylmorpholin-4-yl]-6-[1-(1,3-thiazol-2-ylsulfonyl)cyclopropyl]pyrimidin-2-yl]phenyl]urea] | 8.38
